Laboratory results reported in ChEMBL document CHEMBL3244225, “Synthesis and biological activity of some vinyl-substituted 2-nitroimidazoles” (J Med Chem, 1977).
Values after ≈ are worked out from the molar mass of the structure shown. Active and inactive are the calls of the source. The rule behind the calls is not given here.

Key:
Streptococcus pneumoniae = experiment: Antimicrobial activity against Diplococcus pneumoniae UC41 by tube dilution method; assay type: functional
[1] = tested on: Mycobacterium tuberculosis; experiment: Antimicrobial activity against Mycobacterium tuberculosis ATCC 9360 by tube dilution method; assay type: functional
[2] = Toxicity in po dosed mouse infected with Escherichia coli; assay type: organism-based; details: in vivo
Shigella sonnei = experiment: Antimicrobial activity against Shigella sonnei ATCC 9290 by tube dilution method; assay type: functional
Proteus vulgaris = experiment: Antimicrobial activity against Proteus vulgaris X19 H ATCC 881 by tube dilution method; assay type: functional
Pseudomonas aeruginosa = experiment: Antimicrobial activity against Pseudomonas aeruginosa ATCC 10145 by tube dilution method; assay type: functional
Staphylococcus aureus [3] = experiment: Antimicrobial activity against Staphylococcus aureus infected in mouse at 200 mg/kg, sc; assay type: functional, organism-based; set-up: dose 200 mg/kg
Staphylococcus aureus [4] = experiment: Antimicrobial activity against Staphylococcus aureus Tour by tube dilution method; assay type: functional
Klebsiella pneumoniae = experiment: Antimicrobial activity against Klebsiella pneumoniae I.S.M. by tube dilution method; assay type: functional
[5] = Toxicity in sc dosed mouse infected with Escherichia coli; assay type: organism-based; details: in vivo
Candida albicans = experiment: Antimicrobial activity against Candida albicans SKF 2270 by tube dilution method; assay type: functional
[6] = tested on: Mycoplasmoides gallisepticum; experiment: Antimicrobial activity against Mycoplasma gallisepticum H21 C.Z.B. by tube dilution method; assay type: functional
Trichomonas vaginalis [7] = experiment: Trichomonastatic activity against Trichomonas vaginalis by tube dilution method; assay type: functional
Salmonella typhimurium = experiment: Antimicrobial activity against Salmonella typhimurium Kh by tube dilution method; assay type: functional, Salmonella enterica subsp. enterica serovar Typhimurium; details: Salmonella enterica
Streptococcus pyogenes = experiment: Antimicrobial activity against Streptococcus haemolyticus C 203 by tube dilution method; assay type: functional
[8] = tested on: Trichophyton mentagrophytes; experiment: Antimicrobial activity against Trichophyton mentagrophytes SKF 17410 by tube dilution method; assay type: functional
Staphylococcus aureus [9] = experiment: Antimicrobial activity against Staphylococcus aureus infected in mouse at 200 mg/kg, po; assay type: functional, organism-based; set-up: dose 200 mg/kg
Escherichia coli [10] = experiment: Antimicrobial activity against Escherichia coli SKF 12140 by tube dilution method; assay type: functional
Clostridium perfringens = experiment: Antimicrobial activity against Clostridium perfringens ISS 30543 by tube dilution method; assay type: functional
Escherichia coli [11] = experiment: Antimicrobial activity against Escherichia coli infected in mouse at 300 mg/kg, po; assay type: functional, organism-based; set-up: dose 300 mg/kg
Trichomonas vaginalis [12] = experiment: Trichomonacidal activity against Trichomonas vaginalis by tube dilution method; assay type: functional
Trichomonas vaginalis [13] = experiment: Ratio of metronidazole ED50 to compound ED50 for Trichomonas vaginalis infected in sc dosed mouse; assay type: functional
[14] = Toxicity in po dosed mouse infected with Trichomonas vaginalis; assay type: organism-based; details: in vivo
Escherichia coli [15] = experiment: Antimicrobial activity against Escherichia coli infected in mouse at 200 mg/kg, sc; assay type: functional, organism-based; set-up: dose 200 mg/kg
Escherichia coli [16] = experiment: Antimicrobial activity against Escherichia coli infected in mouse at 250 mg/kg, po; assay type: functional, organism-based; set-up: dose 250 mg/kg
Escherichia coli [17] = experiment: Antimicrobial activity against Escherichia coli infected in mouse at 250 mg/kg, sc; assay type: functional, organism-based; set-up: dose 250 mg/kg

Cn1c(/C=C/C=[N+](/C)[O-])cnc1[N+](=O)[O-]
MIC (Streptococcus pneumoniae): 100 µg/mL (≈ 476 µM) | MIC [1]: 100 µg/mL (≈ 476 µM) | LD50 [2]: 700 mg/kg | MIC (Shigella sonnei): 20 µg/mL (≈ 95.2 µM) | MIC (Proteus vulgaris): > 100 µg/mL | MIC (Pseudomonas aeruginosa): > 100 µg/mL | Activity (Staphylococcus aureus [3]): Active | MIC (Staphylococcus aureus [4]): 10 µg/mL (≈ 47.6 µM) | MIC (Klebsiella pneumoniae): 20 µg/mL (≈ 95.2 µM) | LD50 [5]: 700 mg/kg | MIC (Candida albicans): > 100 µg/mL | MIC [6]: 10 µg/mL (≈ 47.6 µM) | MIC (Trichomonas vaginalis [7]): > 100 µg/mL | MIC (Salmonella typhimurium): 20 µg/mL (≈ 95.2 µM) | MIC (Streptococcus pyogenes): 20 µg/mL (≈ 95.2 µM) | MIC [8]: > 100 µg/mL | Activity (Staphylococcus aureus [9]): Active | MIC (Escherichia coli [10]): 50 µg/mL (≈ 238 µM) | MIC (Clostridium perfringens): 5 µg/mL (≈ 23.8 µM)

Cn1c(/C=C/C=O)cnc1[N+](=O)[O-]
MIC (Streptococcus pneumoniae): 5 µg/mL (≈ 27.6 µM) | MIC [1]: 50 µg/mL (≈ 276 µM) | MIC (Shigella sonnei): 20 µg/mL (≈ 110 µM) | MIC (Proteus vulgaris): 20 µg/mL (≈ 110 µM) | Activity (Escherichia coli [11]): inactive | MIC (Pseudomonas aeruginosa): 100 µg/mL (≈ 552 µM) | MIC (Staphylococcus aureus [4]): 20 µg/mL (≈ 110 µM) | MIC (Klebsiella pneumoniae): 10 µg/mL (≈ 55.2 µM) | MIC (Candida albicans): > 100 µg/mL | MIC [6]: 50 µg/mL (≈ 276 µM) | MIC (Trichomonas vaginalis [7]): 20 µg/mL (≈ 110 µM) | MIC (Salmonella typhimurium): 5 µg/mL (≈ 27.6 µM) | MIC (Streptococcus pyogenes): 10 µg/mL (≈ 55.2 µM) | MIC [8]: 10 µg/mL (≈ 55.2 µM) | MIC (Trichomonas vaginalis [12]): 50 µg/mL (≈ 276 µM) | MIC (Escherichia coli [10]): 5 µg/mL (≈ 27.6 µM) | MIC (Clostridium perfringens): 20 µg/mL (≈ 110 µM)

CC(=O)/C=C/c1cnc([N+](=O)[O-])n1C
MIC (Streptococcus pneumoniae): 100 µg/mL (≈ 512 µM) | MIC [1]: 20 µg/mL (≈ 102 µM) | MIC (Shigella sonnei): 50 µg/mL (≈ 256 µM) | Ratio ED50 (Trichomonas vaginalis [13]): 1.1 | MIC (Proteus vulgaris): 100 µg/mL (≈ 512 µM) | LD50 [14]: 800 mg/kg | MIC (Pseudomonas aeruginosa): > 100 µg/mL | MIC (Staphylococcus aureus [4]): 50 µg/mL (≈ 256 µM) | MIC (Klebsiella pneumoniae): 100 µg/mL (≈ 512 µM) | MIC (Candida albicans): > 100 µg/mL | Activity (Escherichia coli [15]): inactive | MIC [6]: 50 µg/mL (≈ 256 µM) | MIC (Trichomonas vaginalis [7]): 10 µg/mL (≈ 51.2 µM) | MIC (Salmonella typhimurium): 50 µg/mL (≈ 256 µM) | MIC (Streptococcus pyogenes): 100 µg/mL (≈ 512 µM) | MIC [8]: 100 µg/mL (≈ 512 µM) | MIC (Trichomonas vaginalis [12]): 50 µg/mL (≈ 256 µM) | MIC (Escherichia coli [10]): 20 µg/mL (≈ 102 µM) | MIC (Clostridium perfringens): 5 µg/mL (≈ 25.6 µM)

CC(/C=C/c1cnc([N+](=O)[O-])n1C)=[N+](\C)[O-]
MIC (Streptococcus pneumoniae): 50 µg/mL (≈ 223 µM) | MIC [1]: > 100 µg/mL | LD50 [2]: 700 mg/kg | MIC (Shigella sonnei): 100 µg/mL (≈ 446 µM) | Ratio ED50 (Trichomonas vaginalis [13]): 2.6 | MIC (Proteus vulgaris): 100 µg/mL (≈ 446 µM) | LD50 [14]: 700 mg/kg | Activity (Escherichia coli [16]): inactive | MIC (Pseudomonas aeruginosa): > 100 µg/mL | MIC (Staphylococcus aureus [4]): 50 µg/mL (≈ 223 µM) | MIC (Klebsiella pneumoniae): 100 µg/mL (≈ 446 µM) | LD50 [5]: 700 mg/kg | MIC (Candida albicans): > 100 µg/mL | Activity (Escherichia coli [17]): inactive | MIC [6]: 50 µg/mL (≈ 223 µM) | MIC (Trichomonas vaginalis [7]): 50 µg/mL (≈ 223 µM) | MIC (Salmonella typhimurium): 100 µg/mL (≈ 446 µM) | MIC (Streptococcus pyogenes): 100 µg/mL (≈ 446 µM) | MIC [8]: > 100 µg/mL | MIC (Trichomonas vaginalis [12]): 100 µg/mL (≈ 446 µM) | MIC (Escherichia coli [10]): 50 µg/mL (≈ 223 µM) | MIC (Clostridium perfringens): 10 µg/mL (≈ 44.6 µM)
